Series [1] in a line: Solubility of the compound in pH 6.5 phosphate buffer containing 5% DMSO.
For series [2], the target named is T1, Indoleamine 2,3-dioxygenase 1 (Homo sapiens, UniProt P14902). As to the kind of experiment: Inhibition of IDO1 (unknown origin) using L-tryptophan substrate incubated for 60 mins in presence of 0.01% Triton-X by HPLC.
Series [3] has as its target T1, Indoleamine 2,3-dioxygenase 1. Nature of the series: Inhibition of IDO1 (unknown origin) using L-tryptophan substrate incubated for 60 mins by HPLC.
For series [4], the target named is Indoleamine 2,3-dioxygenase 1 (Mus musculus, UniProt P28776). Nature of the series: Inhibition of mouse IDO1 expressed in mouse P815B cells using L-tryptophan substrate incubated for 18 hrs by HPLC based cellular assay. Type of series: cell-based. The settings on record: p815b.
Sequence of Indoleamine 2,3-dioxygenase 1 (Mus musculus, UniProt P28776) (P28776 whole entry): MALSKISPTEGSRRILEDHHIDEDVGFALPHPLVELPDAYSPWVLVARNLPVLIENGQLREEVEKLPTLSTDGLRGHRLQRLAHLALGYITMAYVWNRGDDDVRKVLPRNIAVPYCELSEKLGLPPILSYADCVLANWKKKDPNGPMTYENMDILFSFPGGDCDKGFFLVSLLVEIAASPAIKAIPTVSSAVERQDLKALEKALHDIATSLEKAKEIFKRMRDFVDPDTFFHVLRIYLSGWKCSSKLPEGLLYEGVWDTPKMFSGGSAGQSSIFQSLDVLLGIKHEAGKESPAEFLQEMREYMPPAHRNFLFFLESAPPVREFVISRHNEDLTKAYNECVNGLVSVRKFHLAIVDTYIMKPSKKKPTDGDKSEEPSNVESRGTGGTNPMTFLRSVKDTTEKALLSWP
A short description of series [5]: Cytotoxicity against mouse P815B cells after 24 hrs by MTS/PMS assay.
Series [6] has as its target Tryptophan 2,3-dioxygenase (Mus musculus, UniProt P48776). As to the kind of experiment: Inhibition of mouse TDO expressed in mouse P815B cells using L-tryptophan substrate incubated for 24 hrs by HPLC based cellular assay. The settings on record: p815b. Type of series: cell-based.
Setting [7] is: phosphate buffer containing 5% DMSO.

Molecules are shown by their SMILES. In brackets after ≈: the same amount, converted by molar mass.

Sequence of Tryptophan 2,3-dioxygenase (P48776 whole entry): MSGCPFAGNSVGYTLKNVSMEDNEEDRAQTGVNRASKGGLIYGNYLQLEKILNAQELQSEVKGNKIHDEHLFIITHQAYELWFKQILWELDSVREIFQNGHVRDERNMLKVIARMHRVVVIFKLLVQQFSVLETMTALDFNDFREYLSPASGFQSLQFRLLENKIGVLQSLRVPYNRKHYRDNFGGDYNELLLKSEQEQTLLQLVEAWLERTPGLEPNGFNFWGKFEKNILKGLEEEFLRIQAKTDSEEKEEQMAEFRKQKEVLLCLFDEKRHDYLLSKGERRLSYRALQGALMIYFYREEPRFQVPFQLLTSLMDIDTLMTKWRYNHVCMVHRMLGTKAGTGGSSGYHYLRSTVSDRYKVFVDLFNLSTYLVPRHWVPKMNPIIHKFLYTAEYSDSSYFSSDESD
T1 sequence (P14902 whole entry): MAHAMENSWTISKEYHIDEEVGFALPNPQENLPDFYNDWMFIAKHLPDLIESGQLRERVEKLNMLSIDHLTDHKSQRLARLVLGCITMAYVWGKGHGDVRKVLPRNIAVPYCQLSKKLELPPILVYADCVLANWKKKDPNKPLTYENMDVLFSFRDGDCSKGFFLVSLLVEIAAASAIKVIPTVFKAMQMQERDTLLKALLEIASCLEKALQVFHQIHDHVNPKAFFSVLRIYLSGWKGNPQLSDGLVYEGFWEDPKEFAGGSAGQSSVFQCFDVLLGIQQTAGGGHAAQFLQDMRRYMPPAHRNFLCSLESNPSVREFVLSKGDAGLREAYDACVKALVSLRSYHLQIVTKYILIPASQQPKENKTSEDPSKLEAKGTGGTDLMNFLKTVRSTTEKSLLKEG

In the case of `Clc1ccc(CCn2ccnc2)c(Cl)c1`, the solubility in series [1] (setting [7]) is above 1000 µM. Further, in series [2] (read-out: IC50), the half-inhibitory concentration (IC50) stood at 820 µM.

Compound `COC(Cn1ccnc1)c1ccc(Cl)cc1Cl` (stereo unspecified) showed a solubility in series [1] (setting [7]) above 1000 µM. Besides, in series [2] (read-out: IC50), the concentration for half-maximal inhibition (IC50) is 140 µM.

`Clc1ccc(C(Cn2ccnc2)OCc2cccnc2)c(Cl)c1` (stereo unspecified): the solubility in series [1] (setting [7]) was above 1000 µM. In addition, in series [2] (read-out: IC50), the IC50 is 84 µM.

Regarding `OC(Cn1ccnc1)c1ccccc1Cl` (stereo unspecified), in series [1] (setting [7]), the solubility is above 1000 µM. In series [2] (read-out: IC50), the IC50 amounted to 200 µM.

On to `OC(Cn1ccnc1)c1ccc(Cl)c(Cl)c1` (stereo unspecified), for which the solubility in series [1] (setting [7]) was above 1000 µM. For the same compound, the IC50 in series [2] (read-out: IC50) is 830 µM.

Turning to `OC(Cn1ccnc1)c1cccc(Cl)c1` (stereo unspecified), the solubility in series [1] (setting [7]) was above 1000 µM. The IC50 result in series [2] is “Not Active”.

In the case of `OC(Cn1ccnc1)c1c(Cl)cccc1Cl` (stereo unspecified), the solubility in series [1] (setting [7]) was above 1000 µM. In addition, the concentration for half-maximal inhibition (IC50) entry in series [2] was “Not Active”.

Consider `Oc1ccccc1C(O)Cn1ccnc1` (stereo unspecified), for which the solubility in series [1] (setting [7]) is above 1000 µM. Further, the IC50 entry in series [2] is on record as “Not Active”.

In the case of `OC(Cc1c[nH]nn1)c1ccc(Cl)cc1Cl` (stereo unspecified), the solubility in series [1] (setting [7]) was above 1000 µM. The half-maximal inhibitory concentration (IC50) entry in series [2] is reported as “Not Active”.

In series [1] (setting [7]), `Clc1ccc(Cn2ccnc2)c(Cl)c1` returned a solubility above 1000 µM. In addition, the concentration for half-maximal inhibition (IC50) in series [2] (read-out: IC50) turned out to be 310 µM.

In series [1] (setting [7]), `Clc1ccc(-n2ccnc2)c(Cl)c1` returned a solubility above 1000 µM. For the same compound, the 50% inhibitory concentration (IC50) entry in series [2] was “Not Active”.

As for `O=C(Cn1ccnc1)c1ccc(Cl)cc1Cl`, the solubility in series [1] (setting [7]) was above 1000 µM. Further, the IC50 result in series [2] is on record as “Not Active”.

Consider `c1ccc(CCn2ccnc2)cc1`, for which the solubility in series [1] (setting [7]) was above 1000 µM. In addition, in series [2], the concentration for half-maximal inhibition (IC50) result is “Not Active”.

Regarding `CCN(CC)C(=S)SSC(=S)N(CC)CC`, in series [3], the IC50 entry is “Not Active”. In series [1] (setting [7]), this compound came in with a solubility of 100 µM (≈ 29.7 µg/mL).

On to `c1ccc(Cn2ccnc2)cc1` [BENZYLIMIDAZOLE], for which, in series [1] (setting [7]), the solubility was above 1000 µM. The half-maximal inhibitory concentration (IC50) result in series [2] is recorded as “Not Active”.

Consider `c1ccc(-c2ccc(C(c3ccccc3)n3ccnc3)cc2)cc1` (stereo unspecified) [BIFONAZOLE], for which the half-maximal inhibitory concentration (IC50) result in series [4] was “Not Active”; in series [3] (read-out: IC50), 23 µM; in series [6] it was “Not Active”. For the same compound, in series [5] (P815B cells), the midpoint of cytotoxicity, the CC50 at 24 h, lay at 10 µM. Moreover, the concentration in solution in series [1] (setting [7]) (solubility) came to 25 µM (≈ 7.76 µg/mL).

As to `Clc1ccc(CCC(Cn2ccnc2)Sc2c(Cl)cccc2Cl)cc1` (stereo unspecified) [BUTOCONAZOLE], the IC50 entry in series [3] is on record as “Not Active”. In series [1] (setting [7]), this compound returned a solubility of 10 µM (≈ 4.12 µg/mL).

With `Cc1cc(C2CCCCC2)n(O)c(=O)c1` [CICLOPIROX], the half-inhibitory concentration (IC50) result in series [3] is “Not Active”. The compound also yielded a solubility in series [1] (buffer) of 1000 µM (≈ 207 µg/mL).

Consider `Clc1ccc(COC(Cn2ccnc2)c2ccc(Cl)cc2Cl)cc1` (stereo unspecified) [ECONAZOLE], for which the half-inhibitory concentration (IC50) entry in series [4] was “Not Active”; in series [3], 8.1 µM; in series [6] it was “Not Active”. In series [5] (P815B cells), this compound had a CC50 at 24 h of 10 µM. This compound returned a solubility in series [1] (setting [7]) of 10 µM (≈ 3.82 µg/mL).

Regarding `C=CCOC(Cn1ccnc1)c1ccc(Cl)cc1Cl` (stereo unspecified) [ENILCONAZOLE], the figures for the half-maximal inhibitory concentration (IC50) result in series [4], in series [3] (read-out: IC50) and in series [6] were “Not Active”, 23 µM and “Not Active”, respectively. Further, the CC50 at 24 h in series [5] (P815B cells) was above 25 µM. In series [1] (setting [7]), this compound yielded a solubility of 10 µM (≈ 2.97 µg/mL).

For the compound `Clc1ccc(C(Cn2ccnc2)OCc2c(Cl)cccc2Cl)c(Cl)c1` (stereo unspecified) [ISOCONAZOLE], the IC50 result in series [4] is “Not Active”; in series [3] (read-out: IC50), 23 µM; in series [6], “Not Active”. Moreover, in series [5] (P815B cells), the CC50 at 24 h amounted to 10 µM. In series [1] (setting [7]), this compound came in with a solubility of 50 µM (≈ 20.8 µg/mL).

Consider `CCOC(=O)C1=C(C)NC(C)=C(C(=O)OCC)C1c1ccccc1/C=C/C(=O)OC(C)(C)C` [LACIDIPINE], for which the concentration in solution in series [1] (setting [7]) (solubility) was 1 µM (≈ 0.456 µg/mL).

In turn, `COc1cccc(N(C)C(=S)Oc2ccc3c(c2)CCCC3)n1` [LIRANAFTATE] yielded a solubility in series [1] (setting [7]) of 12.5 µM (≈ 4.11 µg/mL).

For the compound `Sc1ncnc2nc[nH]c12` [MERCAPTOPURINE ANHYDROUS], in series [3], the IC50 entry was “Not Active”. Moreover, the solubility in series [1] (setting [7]) amounted to 1000 µM (≈ 152 µg/mL).

With `COC(=O)C1=C(C)NC(C)=C(C(=O)OC)C1c1ccccc1[N+](=O)[O-]` [NIFEDIPINE], in series [3], the concentration for half-maximal inhibition (IC50) result is “Not Active”.

`COC(=O)C1=C(C)NC(C)=C(C(=O)OCC(C)C)C1c1ccccc1[N+](=O)[O-]` (stereo unspecified) [NISOLDIPINE]: in series [3], the IC50 entry is “Not Active”. Further, the concentration in solution in series [1] (setting [7]) (solubility) came to 50 µM (≈ 19.4 µg/mL).

With `Clc1ccc(CO/N=C(\Cn2ccnc2)c2ccc(Cl)cc2Cl)c(Cl)c1` [OXICONAZOLE], the IC50 entry in series [4] was “Not Active”; in series [3] (read-out: IC50) it was 28 µM; in series [6], “Not Active”. For the same compound, in series [5] (p815b), the CC50 at 24 h was found to be 10 µM. The compound further registered a solubility in series [1] (setting [7]) of 20 µM (≈ 8.58 µg/mL).

For the compound `NNCCc1ccccc1` [PHENELZINE], the values for the IC50 entry in series [4], in series [3] (read-out: IC50) and in series [6] were “Not Active”, 14 µM and “Not Active”, respectively. The compound also yielded a CC50 at 24 h in series [5] (p815b) above 25 µM. Besides, the solubility in series [1] (buffer) came to 1000 µM (≈ 136 µg/mL).

`CC(C)(N)Cc1ccccc1` [PHENTERMINE]: the concentration in solution in series [1] (setting [7]) (solubility) was 1000 µM (≈ 149 µg/mL).

As for `COCCCOc1ccnc(C[S+]([O-])c2nc3ccccc3[nH]2)c1C` (stereo unspecified) [RABEPRAZOLE], in series [3], the 50% inhibitory concentration (IC50) result was “Not Active”. In series [1] (setting [7]), this compound gave a solubility of 1000 µM (≈ 359 µg/mL).

In series [1] (setting [7]), `O=C(c1ccc(OCCN2CCCCC2)cc1)c1c(-c2ccc(O)cc2)sc2cc(O)ccc12` [RALOXIFENE] registered a solubility of 50 µM (≈ 23.7 µg/mL).

Turning to `Clc1ccc(C(Cn2ccnc2)OCc2csc3c(Cl)cccc23)c(Cl)c1` (stereo unspecified) [SERTACONAZOLE], the IC50 result was “Not Active” in series [4], 8.4 µM in series [3] (read-out: IC50) and “Not Active” in series [6]. The compound also showed a CC50 at 24 h in series [5] (P815B cells) of 10 µM. The compound also gave a solubility in series [1] (setting [7]) of 10 µM (≈ 4.38 µg/mL).

As to `Clc1ccc(CSC(Cn2ccnc2)c2ccc(Cl)cc2Cl)cc1` (stereo unspecified) [SULCONAZOLE], the IC50 result in series [4] and in series [6] was “Not Active” each time. In series [5] (p815b), this compound showed a CC50 at 24 h of 10 µM. Further, the concentration in solution in series [1] (setting [7]) (solubility) was 10 µM (≈ 3.98 µg/mL).

Regarding `Clc1ccc(C(Cn2ccnc2)OCc2ccsc2Cl)c(Cl)c1` (stereo unspecified) [TIOCONAZOLE], the IC50 entry in series [3] is on record as “Not Active”. This compound had a solubility in series [1] (buffer) of 10 µM (≈ 3.88 µg/mL).

The record behind these values is ChEMBL document CHEMBL3351924, “Detailed analysis and follow-up studies of a high-throughput screening for indoleamine 2,3-dioxygenase 1 (IDO1) inhibitors” (Eur J Med Chem, 2014).
